# Experimental data published in EP0568635B1, “IMPROVED GLYPHOSATE FORMULATIONS” (MONSANTO COMPANY, priority 1991, dated 1992).
# System: Johnsongrass
# Assay: Greenhouse bioassay test of herbicidal activity, pot-grown weeds sprayed with a track sprayer
# Type: in vivo
# Settings: mean of four rates (1/4, 1/2, 3/4 and 1 pound glyphosate/acre; 0.28, 0.56, 0.84 and 1.12 kg/ha), 4 weeks after treatment, 0.25 % ethoxylated amine surfactant in all spray solutions
# Procedure: The results of the bioassay test of the Example 2 formulation are shown below. Roundup herbicide was used as a comparative of the prior art.
# In all of the greenhouse bioassay tests provided in this specification, pot-grown weed species were sprayed with aqueous solutions of the glyphosate WSP formulations using a track sprayer calibrated to apply about 20 gallons/acre (187 liters/hectare) at about 30 psi ([…]).
# WSP formulations were prepared without Witconate surfactant. The surfactant was tank mixed into the spray solutions for bioassays.
structure (smiles),measurement,value
CC(C)N.O=C(O)CNCP(=O)(O)O [Isopropylamine salt of glyphosate],% INHIBITION,55.2%
